EPA's ToxRefDB 2

What was measured:
[1] = tested on: rat; settings: Combined chronic toxicity/carcinogenicity, fischer, Oral, Feed, dose end: 24 month, group: systemic
[2] = tested on: rat; settings: Multigenerational reproductive toxicity study, sprague dawley, Oral, Feed, dose end: 2 generation
[3] = tested on: rat; settings: Subchronic oral toxicity in rodents, fischer, Feed, dose end: 3 month, group: systemic
[4] = tested on: mouse; settings: Carcinogenicity, cd1, Oral, Feed, dose end: 18 month, group: systemic
[5] = tested on: rat; settings: Subchronic oral toxicity in rodents, fischer, Feed, dose end: 13 week, group: systemic, systemic / pathology microscopic / thyroid gland / vacuolization + systemic / organ weight / heart / nos
[6] = tested on: dog; settings: Chronic toxicity, beagle, Oral, Feed, dose end: 52 week, group: systemic
[7] = tested on: mouse; settings: Subchronic oral toxicity in rodents, cd1, Feed, dose end: 13 week, group: systemic, systemic / pathology microscopic / adrenal gland / vacuolization cytoplasmic + systemic / pathology microscopic / bone marrow / …
[8] = tested on: dog; settings: Subchronic oral toxicity in nonrodent, beagle, Feed, dose end: 13 week, group: systemic, systemic / pathology microscopic / intestine large / vacuolization + systemic / pathology microscopic / intestine small / vacuolization + …
[9] = systemic / pathology microscopic / thyroid gland / vacuolization
[10] = systemic / pathology microscopic / thyroid gland / vacuolization + systemic / clinical chemistry / alkaline phosphatase (alp/alk) / alkaline…
[11] = group: offspring, systemic / in life observation / body weight / offspring (pup) weight
[12] = group: parental, systemic / organ weight / heart / absolute + systemic / organ weight / heart / relative to body weight + systemic / organ weight / kidney / …
[13] = group: reproductive, reproductive / offspring survival early / litter size / litter size + reproductive / offspring survival early / birth index / live birth …
[14] = systemic / pathology microscopic / heart / cardiomyopathy + systemic / pathology microscopic / lymph node / histiocytosis + systemic / …
[15] = systemic / pathology microscopic / lymph node / histiocytosis + systemic / pathology microscopic / spleen / histiocytosis + systemic / …
[16] = systemic / pathology microscopic / lymph node / vacuolization + systemic / pathology microscopic / spleen / vacuolization + systemic / organ…

Compound: CC[C@H]1CCC[C@H](O[C@H]2CC[C@H](N(C)C)[C@@H](C)O2)[C@@H](C)C(=O)C2=C[C@@H]3[C@@H](C=C(C)[C@@H]4C[C@@H](O[C@@H]5O[C@@H](C)[C@H](OC)[C@@H](OC)[C@H]5OC)C[C@@H]34)[C@@H]2CC(=O)O1.CC[C@H]1CCC[C@H](O[C@H]2CC[C@H](N(C)C)[C@@H](C)O2)[C@@H](C)C(=O)C2=C[C@@H]3[C@@H](C=C[C@@H]4C[C@@H](O[C@@H]5O[C@@H](C)[C@H](OC)[C@@H](OC)[C@H]5OC)C[C@@H]34)[C@@H]2CC(=O)O1 [Spinosad]
- LEL [1, 9]: 9.5 mg/kg/day
- LOAEL [1, 9]: 24.1 mg/kg/day
- NEL [1, 10]: 2.4 mg/kg/day
- NOAEL [1, 10]: 9.5 mg/kg/day
- LEL [2, 11]: 10 mg/kg/day
- NEL [2, 11]: 3 mg/kg/day
- NOAEL ([2]; group: offspring, systemic / in life observation / clinical signs / hemorrhagic perineal discharge): 10 mg/kg/day
- LOAEL ([2]; group: offspring, systemic / in life observation / clinical signs / hemorrhagic perineal discharge + systemic / in life observation / body weight / offspring…): 100 mg/kg/day
- LEL [2, 12]: 100 mg/kg/day
- LOAEL [2, 12]: 100 mg/kg/day
- NEL [2, 12]: 10 mg/kg/day
- NOAEL [2, 12]: 10 mg/kg/day
- NEL [2, 13]: 10 mg/kg/day
- NOAEL [2, 13]: 10 mg/kg/day
- LOAEL ([2]; group: reproductive, reproductive / offspring survival early / litter size / litter size + reproductive / reproductive performance / dystocia / dystocia): 100 mg/kg/day
- LEL ([2]; group: reproductive, reproductive / offspring survival early / litter size / litter size + reproductive / reproductive performance / dystocia / dystocia + …): 100 mg/kg/day
- LOAEL [3, 14]: 68.5 mg/kg/day
- NOAEL [3, 14]: 33.9 mg/kg/day
- LEL [3, 15]: 33.9 mg/kg/day
- NEL [3, 15]: < 33.9 mg/kg/day
- LOAEL ([4]; systemic / hematology / leukocyte (wbc) count differential / leukocyte (wbc)): 41.5 mg/kg/day
- NOAEL ([4]; systemic / hematology / leukocyte (wbc) count differential / leukocyte (wbc) + systemic / organ weight / liver / relative to body weight + …): 1.3 mg/kg/day
- NEL ([4]; systemic / organ weight / brain / relative to body weight): 1.1 mg/kg/day
- LEL ([4]; systemic / organ weight / brain / relative to body weight + systemic / in life observation / body weight / body weight + systemic / in life …): 32.7 mg/kg/day
- LEL [5]: 42.7 mg/kg/day
- LOAEL [5]: > 42.7 mg/kg/day
- NOAEL [5]: ≥ 42.7 mg/kg/day
- LOAEL ([6]; systemic / pathology microscopic / lymph node / vacuolization + systemic / pathology microscopic / spleen / vacuolization): 8.22 mg/kg/day
- LEL [6, 16]: 8.22 mg/kg/day
- NEL [6, 16]: 2.72 mg/kg/day
- NOAEL [6, 16]: 2.72 mg/kg/day
- LEL [7]: 22.5 mg/kg/day
- LOAEL [7]: 22.5 mg/kg/day
- NEL [7]: 7.5 mg/kg/day
- NOAEL [7]: 7.5 mg/kg/day
- LEL [8]: 9.73 mg/kg/day
- LOAEL [8]: 9.73 mg/kg/day
- NEL [8]: 4.89 mg/kg/day
- NOAEL [8]: 4.89 mg/kg/day
